Experimental data published in paper PMC6914834, “New Dihydroisocoumarin Root Growth Inhibitors From the Sponge-Derived Fungus Aspergillus sp. NBUF87” (Frontiers in Microbiology, 2019).
pEC50, pIC50: −log10 of the molar value. Converted amounts (≈) assume the structure as drawn. Where two headings read alike, the source gives them in different places.

Tests used:
Plasmodium falciparum W2 = test: In vitro antimalarial activity assay; format: cell-based
Experimental: The in vitro antimalarial activity of the compounds was evaluated against the parasite (Plasmodium falciparum W2), which was cultured continuously according to a previously described method ([Lazaro et al., 2006]).

[1] = system: Arabidopsis thaliana Columbia-0 (Col-0); test: Plant growth response assay (root growth); format: in vivo; settings: 100 μM
Experimental: Arabidopsis thaliana Col-0, a model organism for plant growth and development, was used to test each isolated compound according to a previously described protocol ([Li X. et al., 2018]; [Huang et al., 2019]). Plants grown in 2% (v/v) DMSO were used as the negative control. Seeds of Col-0 incubated in 1 μM of 6-benzylaminopurine (BAP) were selected as the positive control. Test samples were dissolved in 2% (v/v) DMSO at various test concentrations for the experiment.

[2] = system: methicillin-resistant Staphylococcus aureus ATCC43300; test: Antibacterial activity assay, MRSA; format: cell-based; settings: 96-well plates, read-out: MIC, methicillin-resistant S. aureus ATCC43300
Experimental: Compounds 1−11 were evaluated for their antibacterial activities against methicillin-resistant Staphylococcus aureus ATCC43300 and Escherichia coli ATCC25922 in 96-well plates according to the method described by [Gu et al. (2018)]. Ciprofloxacin was selected as a positive control against the above-mentioned bacteria with MIC values of 0.5 μg/mL.

HCT-116 = test: In vitro cancer cell cytotoxicity (MTT), HCT-116; format: cell-based; settings: Homo sapiens, positive control, quantity not given
Experimental: (§1) 7-Ethyl-10-hydroxycamptothecin (1.3, 10.8, 9.9, and 4.2 nM, respectively) was used as the positive control against four above-mentioned human cancer cell lines.

MDA-MB-231 = test: In vitro cancer cell cytotoxicity (MTT), MDA-MB-231; settings: Homo sapiens, MDA-MB-231, read-out: cytotoxicity of positive control, MDA-MB-231
CCRF-CEM = test: In vitro cancer cell cytotoxicity (MTT), CCRF-CEM; format: cell-based; settings: Homo sapiens, positive control, quantity not given
Experimental: as §1

AGS = test: In vitro cancer cell cytotoxicity (MTT), AGS; format: cell-based; settings: Homo sapiens, positive control, quantity not given
Experimental: as §1

[3] = W2, in vitro, positive controls, read-out: EC50, P. falciparum W2 (positive controls)

Question: With `O=C1C(O)=C([C@H]2CC[C@H](c3ccc(Cl)cc3)CC2)C(=O)c2ccccc21` [atovaquone] as the compound, how does the pEC50 (Plasmodium falciparum W2; [3]) read?
Answer: 8.60

Question: With `C[C@H](O)CCC[C@H]1OC(=O)c2c(O)cccc2[C@@H]1O` [Compound 5, aspergimarin E] as the compound, how does the “root growth inhibitory activity in plant growth response assay” value [1] read?
Answer: root growth inhibitory activity was observed

Question: What about the “inhibition of primary root growth of Col-0” value ([1]; 10 days after seed germination) of the same compound?
Answer: notable inhibition

Question: And the “inhibitory effect on lateral root growth of Col-0” value ([1]; 10 days after seed germination)?
Answer: notable inhibition

Question: With `O=C(O)c1cn(C2CC2)c2cc(N3CCNCC3)c(F)cc2c1=O` [Ciprofloxacin] as the compound, how does the MIC [2] read?
Answer: 0.5 µg/mL (≈ 1.51 µM)

Question: `C[C@H](O)CCC[C@@H]1Cc2c(O)ccc(O)c2C(=O)O1` [Compound 1, aspergimarin A] was tested. Which “root growth inhibitory activity in plant growth response assay” value [1] did it give?
Answer: root growth inhibitory activity was observed

Question: And the “inhibitory effect on lateral root growth of Col-0” value ([1]; 10 days after seed germination)?
Answer: significant inhibitory effect

Question: With `CCc1c2c(nc3ccc(O)cc13)-c1cc3c(c(=O)n1C2)COC(=O)[C@]3(O)CC` [7-Ethyl-10-hydroxycamptothecin] as the compound, how does the pIC50 (HCT-116) read?
Answer: 8.00

Question: And the pIC50 (MDA-MB-231)?
Answer: 7.97

Question: And the pIC50 (CCRF-CEM)?
Answer: 8.89

Question: What about the pIC50 (AGS) of the same compound?
Answer: 8.38

Question: `C[C@@H]1CC[C@H]2[C@@H](C)C(=O)O[C@@H]3O[C@@]4(C)CC[C@@H]1[C@]32OO4` [artemisinin] was tested. Which pEC50 (Plasmodium falciparum W2; [3]) did it give?
Answer: 6.80

Question: `CCN(CC)CCCC(C)Nc1ccnc2cc(Cl)ccc12` (stereo not shown) [Chloroquine] was tested. Which pEC50 (Plasmodium falciparum W2; W2, read-out: EC50, P. falciparum W2 (positive controls)) did it give?
Answer: 6.95
